Reference: article PMC8693235, “Biocatalytic kinetic resolution of D,L-pantolactone by using a novel recombinant D-lactonase” (RSC Advances, 2020)

Target: T1, TSDL (D-lactonase) (Thermothielavioides terrestris, UniProt G2R1T8)
T1 construct: gene THITE_2046186; 421 aa, about 45 kDa on SDS-PAGE; pET-28a(+) NcoI/XhoI, E. coli BL21(DE3), intracellular; used as whole cells
T1 sequence (G2R1T8 1-421): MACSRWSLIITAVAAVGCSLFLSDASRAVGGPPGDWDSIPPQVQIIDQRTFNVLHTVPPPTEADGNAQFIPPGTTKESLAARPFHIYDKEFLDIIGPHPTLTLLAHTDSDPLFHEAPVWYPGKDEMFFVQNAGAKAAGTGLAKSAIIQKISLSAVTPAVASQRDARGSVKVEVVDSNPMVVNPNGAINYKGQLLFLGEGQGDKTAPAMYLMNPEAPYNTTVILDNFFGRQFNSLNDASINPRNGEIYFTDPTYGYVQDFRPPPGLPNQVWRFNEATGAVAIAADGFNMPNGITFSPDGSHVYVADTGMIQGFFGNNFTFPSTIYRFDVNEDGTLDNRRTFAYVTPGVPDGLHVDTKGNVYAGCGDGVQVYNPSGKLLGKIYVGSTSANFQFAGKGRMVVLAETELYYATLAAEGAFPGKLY
Assay: whole-cell hydrolysis of D,L-pantolactone, HPLC and chiral HPLC
Type: cell-based
Conditions: racemic D,L-pantolactone; recombinant E. coli (TSDL) whole cells; pH 7.0, 30 °C; 5% NH3·H2O for pH control

SMILES: CC1(C)COC(=O)[C@@H]1O [D-PL, D-pantolactone]
- whole-cell hydrolysis of D,L-pantolactone, HPLC and chiral HPLC: The recombinant TSDL exhibited high hydrolysis activity and enantioselectivity toward D-PL
